Source: patent US6951856B2, “Arylethene-sulfonamides” (Actelion Pharmaceuticals Ltd., priority 2000, dated 2005)
pIC50: −log10 of the molar value.

Key:
[1] = biological target: T1, human recombinant ETB receptors (Homo sapiens, UniProt P24530); assay: Inhibition of [125I]ET-1 binding to membranes from CHO cells carrying human ETB receptors
T1 construct: expressed in transfected cells; host or cells: CHO cells (microsomal membranes)
T1 sequence (P24530 27-442): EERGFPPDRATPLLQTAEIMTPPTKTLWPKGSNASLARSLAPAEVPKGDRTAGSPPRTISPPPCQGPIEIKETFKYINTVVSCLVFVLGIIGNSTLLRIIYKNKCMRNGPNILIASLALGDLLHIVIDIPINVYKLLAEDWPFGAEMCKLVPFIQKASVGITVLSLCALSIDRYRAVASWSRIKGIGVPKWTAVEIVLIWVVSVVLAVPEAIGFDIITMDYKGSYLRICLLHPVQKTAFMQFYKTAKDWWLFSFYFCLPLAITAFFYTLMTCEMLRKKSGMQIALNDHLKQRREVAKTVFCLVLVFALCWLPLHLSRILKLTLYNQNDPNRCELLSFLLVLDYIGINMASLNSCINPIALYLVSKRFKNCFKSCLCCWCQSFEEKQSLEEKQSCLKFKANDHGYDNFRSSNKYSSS
Description: (§1) 1) Inhibition of Endothelin Binding to Membranes from CHO Cells Carrying Human ET Receptors
(§2) For competition binding studies, membranes of CHO cells expressing human recombinant ETA or ETB receptors were used. Microsomal membranes from recombinant CHO cells were prepared and the binding assay made as previously described (Breu V., et al, FEBS Lett 1993; 334:210).
(§3) The assay was performed in 200 uL 50 mM Tris/HCl buffer, pH 7.4, including 25 mM MnCl2, 1 mM EDTA and 0.5% (w/v) BSA in polypropylene microtiter plates. […] After 2 h, the membranes were filtered on filterplates containing GF/C filters (Unifilterplates from Canberra Packard S.A. Zürich, Switzerland). To each well, 50 uL of scintillation cocktail was added (MicroScint 20, Canberra Packard S.A. Zürich, Switzerland) and the filter plates counted in a microplate counter (TopCount, Canberra Packard S.A. Zürich, Switzerland).
(§4) All the test compounds were dissolved, diluted and added in DMSO.

[2] = biological target: T2, human recombinant ETA receptors (Homo sapiens, UniProt P25101); assay: Inhibition of [125I]ET-1 binding to membranes from CHO cells carrying human ETA receptors; conditions: CHO cell membranes, 8 pM [125I]ET-1, 2 h at 20° C.
T2 construct: expressed in transfected cells; host or cells: CHO cells (microsomal membranes)
T2 sequence (P25101 21-427): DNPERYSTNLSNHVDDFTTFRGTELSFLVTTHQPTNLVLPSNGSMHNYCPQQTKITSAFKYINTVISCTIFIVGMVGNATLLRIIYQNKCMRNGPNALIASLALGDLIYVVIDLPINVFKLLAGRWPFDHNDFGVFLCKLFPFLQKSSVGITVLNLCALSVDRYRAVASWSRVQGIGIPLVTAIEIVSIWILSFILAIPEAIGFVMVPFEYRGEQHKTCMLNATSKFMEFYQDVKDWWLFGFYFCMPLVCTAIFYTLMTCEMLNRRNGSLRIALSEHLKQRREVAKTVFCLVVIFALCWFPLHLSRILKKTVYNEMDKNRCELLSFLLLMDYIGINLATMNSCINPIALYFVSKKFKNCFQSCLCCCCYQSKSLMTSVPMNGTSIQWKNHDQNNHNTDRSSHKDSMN
Description: as §1, §2, §3, §4

[3] = biological target: T3, ETA receptors (Rattus norvegicus, UniProt P26684); assay: Inhibition of endothelin-1-induced contractions on isolated rat aortic rings; format: cell-based; conditions: read-out: pA2 value ETA (converted)
T3 construct: The thoracic aorta or trachea were excised, dissected and cut in 3-5 mm rings; from tissue; host or cells: thoracic aorta rings of adult Wistar rats, endothelium removed
T3 sequence (P26684 21-426): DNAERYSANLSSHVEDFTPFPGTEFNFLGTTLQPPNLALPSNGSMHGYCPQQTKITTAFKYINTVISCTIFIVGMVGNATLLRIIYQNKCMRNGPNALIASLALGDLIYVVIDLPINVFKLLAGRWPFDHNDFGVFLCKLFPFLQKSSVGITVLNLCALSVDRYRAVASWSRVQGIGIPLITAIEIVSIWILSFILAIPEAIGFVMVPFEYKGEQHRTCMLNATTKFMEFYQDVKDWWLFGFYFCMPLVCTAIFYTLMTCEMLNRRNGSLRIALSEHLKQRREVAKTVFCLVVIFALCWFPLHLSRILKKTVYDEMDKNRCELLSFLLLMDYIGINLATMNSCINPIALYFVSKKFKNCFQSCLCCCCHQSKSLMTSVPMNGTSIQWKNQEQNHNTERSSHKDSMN
Description: 2) Inhibition of Endothelin-Induced Contractions on Isolated Rat Aortic Rings (ETA Receptors) and Rat Tracheal Rings (ETB Receptors):
Adult Wistar rats were anesthetized and exsanguinated. The thoracic aorta or trachea were excised, dissected and cut in 3-5 mm rings. The endothelium/epithelium was removed by gentle rubbing of the intimal surface. Each ring was suspended in a 10 ml isolated organ bath filled with Krebs-Henseleit solution (in mM; NaCl 115, KCl 4.7, MgSO4 1.2, KH2PO4 1.5, NaHCO3 25, CaCl2 2.5, glucose 10) kept at 37° and gassed with 95% O2 and 5% CO2. The rings were connected to force transducers and isometric tension was recorded (EMKA Technologies SA, Paris, France). The rings were stretched to a resting tension of 3 g (aorta) or 2 g (trachea). […] The functional inhibitory potency of the test compound was assessed by calculating the concentration ratio, i.e. the shift to the right of the EC50 induced by different concentrations of test compound. EC50 is the concentration of endothelin needed to get a half-maximal contraction, pA2 is the negative logarithm of the antagonist concentration which induces a two-fold shift in the EC50 value.

pIC50 [1]	pIC50 [2]	Kb [3] [nM]	SMILES
5.67	7.75	26.9	Cc1ccc(-c2c(NS(=O)(=O)/C=C/c3ccccc3)ncnc2OCCOc2ncc(F)cn2)cc1 [Example 15]
5.35	7.66	–	COc1ccccc1Oc1c(NS(=O)(=O)/C=C/c2cccs2)nc(-c2ncccn2)nc1OCCOc1ncc(Br)cn1 [Example 157]
6.46	8.62	–	COc1ccccc1Oc1c(NS(=O)(=O)/C(C)=C/c2ccccc2)nc(N2CCOCC2)nc1OCCOc1ncc(Br)cn1 [Example 202]
5.62	8.05	–	Cc1ccc(-c2c(NS(=O)(=O)/C=C/c3cccs3)nc(-c3ncccn3)nc2OCCOc2ncc(Br)cn2)cc1 [Example 72]
6.13	7.26	–	COc1ccc(-c2c(NS(=O)(=O)/C=C/c3ccccc3)ncnc2OCCOc2ncc(OC)cn2)cc1 [Example 119]
5.64	8.14	–	COc1ccccc1Oc1c(NS(=O)(=O)/C=C/c2ccccc2)nc(-c2ccncc2)nc1OCCOc1ncc(Br)cn1 [Example 159]
6.13	7.83	–	COc1cnc(OCCOc2ncnc(NS(=O)(=O)/C=C/c3ccccc3)c2-c2ccc(C)cc2)nc1 [Example 21]
5.79	7.41	–	COc1ccc(-c2c(NS(=O)(=O)/C=C/c3ccccc3)ncnc2OCCOc2ncc(Cl)cn2)cc1 [Example 120]
5.83	8.12	–	Cc1cccc(/C=C/S(=O)(=O)Nc2ncnc(OCCOc3ncc(Br)cn3)c2-c2ccc(Cl)cc2)c1 [Example 52]
6.25	7.52	–	Cc1ccc(/C=C/S(=O)(=O)Nc2ncnc(OCCOc3ncc(Cl)cn3)c2-c2ccc(Cl)cc2)cc1 [Example 60]
5.47	7.70	–	CCc1ccc(-c2c(NS(=O)(=O)/C=C/c3ccccc3)ncnc2OCCOc2ncc(Br)cn2)cc1 [Example 36]
6.76	8.34	–	CSc1cnc(OCCOc2ncnc(NS(=O)(=O)/C=C/c3ccccc3)c2-c2ccc(Cl)cc2)nc1 [Example 51]
6.03	7.91	–	COc1cccc(Oc2c(NS(=O)(=O)/C=C/c3ccccc3)ncnc2OCCOc2ncc(Br)cn2)c1 [Example 230]
5.51	8.00	–	COc1cnc(OCCOc2nc(-c3ncccn3)nc(NS(=O)(=O)/C=C/c3ccccc3)c2-c2ccc(C)cc2)nc1 [Example 144]
6.23	8.10	–	COc1ccccc1Oc1c(NS(=O)(=O)/C=C/c2ccccc2)nc(N2CCOCC2)nc1OCCOc1ncc(C(F)(F)F)cn1 [Example 198]
5.41	7.74	–	COc1nc(NS(=O)(=O)/C=C/c2ccccc2)c(-c2ccccc2)c(OCCOc2ncc(Br)cn2)n1 [Example 114]
5.85	7.78	–	COc1ccccc1Oc1c(NS(=O)(=O)/C=C/c2ccccc2)nc(-c2cnccn2)nc1OCCOc1ncc(Br)cn1 [Example 182]
6.12	7.89	–	COc1cnc(OCCOc2nc(-c3ccncc3)nc(NS(=O)(=O)/C=C/c3ccccc3)c2Oc2ccccc2OC)nc1 [Example 160]

pIC50 [1]	pIC50 [2]	Kb [3] [nM]	SMILES
5.74	7.60	–	Cc1ccc(-c2c(NS(=O)(=O)/C=C/c3ccccc3)ncnc2OCCOc2ncccn2)cc1 [Example 2, 2-phenyl-ethenesulfonic acid {6-[2-(pyrimidin-2-yloxy)-ethoxy]-5-p-tolyl-pyrimidin-4-yl}-amide]
5.60	7.77	–	O=S(=O)(/C=C/c1ccccc1)Nc1nc(-c2ccncc2)nc(OCCOc2ncc(Br)cn2)c1-c1ccc(Cl)cc1 [Example 65]
5.87	7.08	–	Cc1ccc(-c2c(NS(=O)(=O)/C=C/c3ccccc3)ncnc2OCCOc2ccc(Cl)cc2)cc1 [Example 6]
6.36	8.41	–	O=S(=O)(/C=C/c1ccccc1)Nc1ncnc(OCCOc2ncc(Cl)cn2)c1-c1ccc(Br)cc1 [Example 87]
5.87	8.36	–	Cc1ccc(-c2c(NS(=O)(=O)/C=C/c3ccccc3)nc(C)nc2OCCOc2ncc(Br)cn2)cc1 [Example 138]
6.60	8.47	–	COc1cnc(OCCOc2nc(N3CCOCC3)nc(NS(=O)(=O)/C(C)=C/c3ccccc3)c2Oc2ccccc2OC)nc1 [Example 203]
6.20	8.21	–	Cc1ccc(-c2c(NS(=O)(=O)/C=C/c3ccccc3)ncnc2OCCOc2ncc(Br)cn2)cc1C [Example 40]
< 5.00	7.83	–	COCCOc1nc(NS(=O)(=O)/C=C/c2ccccc2)c(-c2ccccc2)c(OCCOc2ncc(Br)cn2)n1 [Example 113]
5.56	7.85	–	Cc1ccc(-c2c(NS(=O)(=O)/C=C/c3ccccc3)nc(N3CCOCC3)nc2OCCOc2ncc(Br)cn2)cc1 [Example 127]
6.29	7.77	–	Cc1ccc(-c2c(NS(=O)(=O)/C=C/c3cccs3)ncnc2OCCOc2ccc(Br)cn2)cc1 [Example 71]
6.89	7.89	–	Cc1ccc(-c2c(NS(=O)(=O)/C=C/c3ccccc3)ncnc2OCCOc2ccc(C(F)(F)F)cn2)cc1 [Example 5, 2-Phenyl-ethenesulfonic acid {5-p-tolyl-6-[2-(5-trifluoromethyl-pyridin-2-yloxy)-ethoxy]-pyrimidin-4-yl}-amide]
5.31	7.24	–	C/C(=C\c1ccccc1)S(=O)(=O)Nc1ncnc(OCCOc2ncc(Br)cn2)c1-c1ccc(Cl)cc1 [Example 62]
5.08	7.48	–	O=S(=O)(/C=C/c1ccccc1)Nc1ncnc(OCCOc2ncc(C(F)(F)F)cn2)c1-c1ccccc1 [Example 95]
5.77	8.01	–	COc1cnc(OCCOc2nc(C)nc(NS(=O)(=O)/C=C/c3ccccc3)c2-c2ccc(C)cc2)nc1 [Example 139]
6.71	7.94	–	Cc1ccc(-c2c(NS(=O)(=O)/C=C/c3ccc(Cl)cc3)ncnc2OCCOc2ncc(Br)cn2)cc1 [Example 27]
6.14	7.33	–	Cc1ccc(-c2c(NS(=O)(=O)/C=C/c3ccccc3)ncnc2OCCOc2ccc(Br)cc2)cc1 [Example 3, 2-phenyl-ethenesulfonic acid {6-[2-(4-bromo-phenoxy)-ethoxy]-5-p-tolyl-pyrimidin-4-yl}-amide]
6.59	7.80	–	Cc1ccc(-c2c(NS(=O)(=O)/C=C/c3cccs3)ncnc2OCCOc2ccc(C(F)(F)F)cn2)cc1 [Example 70]
6.16	8.05	–	COc1cnc(OCCOc2nc(-c3ccncc3)nc(NS(=O)(=O)/C=C/c3ccsc3)c2Oc2ccccc2OC)nc1 [Example 179]
